Six compounds from patent publication US11932654B2, “Nimbolide analogs as anti-cancer agents and preparation thereof” (priority 2018, dated 2024) can be followed below.

By IC50 is commonly meant the concentration at which inhibition is half-maximal.

Holding throughout (format): cell-based
Experiment [1] has as its system A549 lung adenocarcinoma cell line. The experiment can be described thus: In vitro anticancer activity, SRB assay, A549. The conditions noted are these: Homo sapiens, 48 h, NA = Not Active. As for the experimental part: (§1) Cell culture: Human lung adenocarcinoma cell line (A549 cell line), pancreatic cancer cell line (Panc-1, Pan-02), prostate cancer cell line (DU145, PC3), Brest cancer cell line (MCF-7) was grown in DIEM (Dulbecco's modifications of eagle's medium with L-glutamine & 4.5 g/L glucose) supplemented with fetal bovine serum in a humidified atmosphere of a 5% CO2 at 37° C.
(§2) In vitro anticancer activity: Cells were harvested from exponential phase cultures by trypsinization, counted and plated in 96-well plate. Optimal seeding densities for different cell lines in each plate were 5000 cells per well. After 24 h cells were treated with \ the newly synthesized compound at a dose range of 0.1-100 μm final concentration. Thereafter, cells were allowed to grow for 48 h before determination of cell survival by the SRB assay. Then the cells were fixed with 10% cold trichloroacetic acid for 1 h at 4° C. After two washes with deionized water, fixed cells were stained with 50 μL of SRB solution (1% in acetic acid) for 30 min and subsequently washed twice with 1% acetic acid to remove unbound stain. The plates were left to dry at room temperature and bound stain was solubilized with 100 μL of 10 mM buffered Tris base for reading the […] at 540 nm.
In general terms: The SRB assay estimates cell density from bound dye.

For experiment [2], the system named is DU-145 prostate cancer cell line. The experiment can be described thus: In vitro anticancer activity, SRB assay, DU-145. The conditions noted are these: Homo sapiens, 48 h, NA = Not Active. The procedure:
as §1, §2

Experiment [3] concerns PC3 prostate cancer cell line. Nature of the experiment: In vitro anticancer activity, SRB assay, PC3. The conditions noted are these: 48 h, NA = Not Active. The procedure: as §1, §2
Experiment [4] concerns MCF-7 breast cancer cell line. The experiment can be described thus: In vitro anticancer activity, SRB assay, MCF-7. The conditions noted are these: Homo sapiens, MCF7, 48 h, NA = Not Active. As for the experimental part: as §1, §2
The subject of experiment [5] is Panc-1 pancreatic cancer cell line. The experiment can be described thus: In vitro anticancer activity, SRB assay, Panc-1. The conditions noted are these: Homo sapiens, 48 h, NA = Not Active. As for the experimental part:
as §1, §2

As to `COC(=O)C[C@H]1[C@]2(C)C3=C(C)[C@H](c4ccoc4)C[C@@H]3O[C@@H]2[C@@H]2OC(=O)[C@]3(C)C(OCc4ccccc4)CC(=O)[C@@]1(C)C23` (stereo partly shown) [A2], the IC50 in experiment [1] turned out to be 13.1 µM; in experiment [2], 1.45 µM; in experiment [3], 1.01 µM; in experiment [4] it was 4.72 µM; in experiment [5] it was 8.78 µM.
Regarding `COC(=O)C[C@H]1[C@]2(C)C3=C(C)[C@H](c4ccoc4)C[C@@H]3O[C@@H]2[C@@H]2OC(=O)[C@]3(C)C(C(O)c4ccc([N+](=O)[O-])cc4)=CC(=O)[C@@]1(C)C23` (stereo partly shown) [A3], the concentration for half-maximal inhibition (IC50) in experiment [1] amounted to 12.2 µM; in experiment [2] it was 9.31 µM; in experiment [3], 9.08 µM; in experiment [4] it was 4.74 µM; in experiment [5], 7.79 µM.
As for `COC(=O)C[C@H]1[C@]2(C)C3=C(C)[C@H](c4ccoc4)C[C@@H]3O[C@@H]2[C@@H]2OC(=O)[C@]3(C)C4CC4C(=O)[C@@]1(C)C23` (stereo partly shown) [A5], the IC50 in experiment [1] was 60.8 µM; in experiment [2], 7.91 µM; in experiment [3] it was 20.6 µM; in experiment [4], 17.1 µM; in experiment [5], 1.04 µM.
Consider `COC(=O)C[C@H]1[C@]2(C)C3=C(C)[C@H](c4ccoc4)C[C@@H]3O[C@@H]2[C@@H]2OC(=O)[C@]3(C)CCC(=O)[C@@]1(C)C23` (stereo partly shown) [A6], for which the IC50 in experiment [1] stood at 67.2 µM; in experiment [2] it was 75.1 µM; in experiment [3] it was 79.1 µM; in experiment [4], 32.5 µM; in experiment [5], 32.9 µM.
Turning to `COC(=O)C[C@H]1[C@]2(C)C3=C(C)[C@H](c4ccoc4)C[C@@H]3O[C@@H]2[C@@H]2OC(=O)[C@]3(C)C(Sc4cccc(N)c4)CC(=O)[C@@]1(C)C23` (stereo partly shown) [A7], the IC50 worked out at 23.9 µM in experiment [1], 65.3 µM in experiment [3], 52.2 µM in experiment [4] and 18.6 µM in experiment [5].
The matching figures for `COC(=O)C[C@H]1[C@]2(C)C3=C(C)[C@H](c4ccoc4)C[C@@H]3O[C@@H]2[C@@H]2OC(=O)[C@]3(C)C(Nc4ccccc4)CC(=O)[C@@]1(C)C23` (stereo partly shown) [A8]: 89.4 µM, 21 µM, 56.6 µM and 85.5 µM.
